Counter-ions that a name gives are not always drawn. Active and inactive are the calls of the source.
Tests used:
[1] = target: Glucose-6-phosphate 1-dehydrogenase (Homo sapiens, UniProt P11413); assay: human G6PD enzyme inhibitors, dose response, selectivity assay for P. falciparum G6PD inhibitor project, biochemical, fluorescence (AID 504792); format: functional
[2] = target: T1, Mannose-6-phosphate isomerase (Homo sapiens, UniProt P34949); assay: human PMI inhibitors, high substrate, primary screen, biochemical, fluorescence intensity, high mannose 6-phosphate (AID 1220)
T1 sequence (P34949 whole entry): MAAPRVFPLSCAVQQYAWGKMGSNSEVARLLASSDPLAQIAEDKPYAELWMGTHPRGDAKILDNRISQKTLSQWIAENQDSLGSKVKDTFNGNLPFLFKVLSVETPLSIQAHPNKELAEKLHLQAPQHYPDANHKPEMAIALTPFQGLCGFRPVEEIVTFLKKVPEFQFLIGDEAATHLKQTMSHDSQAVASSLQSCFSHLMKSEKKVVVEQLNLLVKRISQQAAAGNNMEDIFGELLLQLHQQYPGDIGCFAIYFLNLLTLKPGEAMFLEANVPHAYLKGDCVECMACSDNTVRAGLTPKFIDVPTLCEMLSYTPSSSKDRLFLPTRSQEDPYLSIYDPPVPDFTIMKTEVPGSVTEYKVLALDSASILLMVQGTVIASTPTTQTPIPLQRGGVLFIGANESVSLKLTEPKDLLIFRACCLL

[3] = target: Voltage-gated inwardly rectifying potassium channel KCNH2 (Homo sapiens, UniProt Q12809); conditions: Potency;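 further: confirmatory quantitative high-throughput screen measuring inhibition of hERG channel activity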
Voltage-gated inwardly rectifying potassium channel KCNH2, sequence (Q12809 whole entry): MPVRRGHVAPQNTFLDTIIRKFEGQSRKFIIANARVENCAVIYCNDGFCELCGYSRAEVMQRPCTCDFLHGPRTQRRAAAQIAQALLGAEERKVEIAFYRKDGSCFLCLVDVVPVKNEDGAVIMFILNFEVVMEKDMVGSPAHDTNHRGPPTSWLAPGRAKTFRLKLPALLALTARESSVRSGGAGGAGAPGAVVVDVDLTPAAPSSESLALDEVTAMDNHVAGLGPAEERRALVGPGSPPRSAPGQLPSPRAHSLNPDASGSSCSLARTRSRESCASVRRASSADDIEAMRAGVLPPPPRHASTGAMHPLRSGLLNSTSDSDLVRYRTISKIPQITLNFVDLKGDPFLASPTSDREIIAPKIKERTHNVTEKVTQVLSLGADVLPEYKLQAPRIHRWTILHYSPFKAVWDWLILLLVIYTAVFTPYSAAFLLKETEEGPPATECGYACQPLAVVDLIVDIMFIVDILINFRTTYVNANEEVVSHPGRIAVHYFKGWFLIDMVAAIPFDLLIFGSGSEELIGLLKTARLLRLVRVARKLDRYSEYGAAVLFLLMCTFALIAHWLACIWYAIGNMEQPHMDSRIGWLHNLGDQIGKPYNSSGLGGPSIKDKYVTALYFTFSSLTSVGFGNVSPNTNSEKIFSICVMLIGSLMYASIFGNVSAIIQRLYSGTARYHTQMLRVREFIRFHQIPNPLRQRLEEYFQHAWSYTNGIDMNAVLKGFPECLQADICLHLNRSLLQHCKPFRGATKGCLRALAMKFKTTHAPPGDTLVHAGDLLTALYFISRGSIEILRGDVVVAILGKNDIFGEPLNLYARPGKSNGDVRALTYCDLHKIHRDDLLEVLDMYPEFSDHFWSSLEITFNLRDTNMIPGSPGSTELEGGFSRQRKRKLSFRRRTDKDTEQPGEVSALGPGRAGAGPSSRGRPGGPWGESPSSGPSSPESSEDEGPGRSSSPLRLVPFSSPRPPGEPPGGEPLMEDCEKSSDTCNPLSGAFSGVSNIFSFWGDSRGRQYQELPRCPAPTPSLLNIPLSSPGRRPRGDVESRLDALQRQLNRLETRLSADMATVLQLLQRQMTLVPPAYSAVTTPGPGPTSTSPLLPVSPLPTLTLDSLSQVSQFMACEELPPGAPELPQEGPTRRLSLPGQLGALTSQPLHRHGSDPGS

Vero [4] = assay: cells; format: functional; conditions: Chlorocebus sabaeus
Vero [5] = assay: cells; format: functional, cell-based; conditions: Chlorocebus sabaeus
[6] = HepG2 cell cytotoxicity, dose response, cytotoxicity control, plate reader, cherry-pick, antagonist series (AID 743416); format: functional, cell-based
[7] = target: Beta-2 adrenergic receptor (Homo sapiens, UniProt P07550); assay: beta2AR agonists driving receptor internalization, dose response, cell-based, FAP fluorogen, flow cytometry, cherry pick 1 (AID 588763); format: functional
Beta-2 adrenergic receptor, sequence (P07550 whole entry): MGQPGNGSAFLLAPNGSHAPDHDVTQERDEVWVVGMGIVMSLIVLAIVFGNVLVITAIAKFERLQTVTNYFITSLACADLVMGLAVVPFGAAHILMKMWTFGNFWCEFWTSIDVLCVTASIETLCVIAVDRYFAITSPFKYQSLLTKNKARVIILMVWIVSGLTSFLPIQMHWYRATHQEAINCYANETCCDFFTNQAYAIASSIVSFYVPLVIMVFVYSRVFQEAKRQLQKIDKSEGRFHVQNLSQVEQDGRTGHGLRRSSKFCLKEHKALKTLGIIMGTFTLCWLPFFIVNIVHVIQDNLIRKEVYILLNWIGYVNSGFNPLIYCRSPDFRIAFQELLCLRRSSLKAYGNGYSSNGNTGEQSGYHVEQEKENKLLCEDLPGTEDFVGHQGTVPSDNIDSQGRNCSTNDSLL

HEK293 [8] = assay: cells; conditions: Homo sapiens
HEK293 [9] = assay: cells; conditions: Homo sapiens; remark: listed apart in the source
[10] = target: T2, Heat shock factor protein 1 (Mus musculus, UniProt P38532); assay: HSF1 potentiators in luciferase reporter cells, confirmation, cell-based, NIH3T3, luminescence, dose retest (AID 435004); format: functional;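 further: stress induced by proteasome inhibitor MG132 added 30 min after compound; luciferase reporter driven by HSF1 response element in NIH3T3 cells; actives raise luminescence as potentiators of the MG132 stress response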
T2 sequence (P38532 whole entry): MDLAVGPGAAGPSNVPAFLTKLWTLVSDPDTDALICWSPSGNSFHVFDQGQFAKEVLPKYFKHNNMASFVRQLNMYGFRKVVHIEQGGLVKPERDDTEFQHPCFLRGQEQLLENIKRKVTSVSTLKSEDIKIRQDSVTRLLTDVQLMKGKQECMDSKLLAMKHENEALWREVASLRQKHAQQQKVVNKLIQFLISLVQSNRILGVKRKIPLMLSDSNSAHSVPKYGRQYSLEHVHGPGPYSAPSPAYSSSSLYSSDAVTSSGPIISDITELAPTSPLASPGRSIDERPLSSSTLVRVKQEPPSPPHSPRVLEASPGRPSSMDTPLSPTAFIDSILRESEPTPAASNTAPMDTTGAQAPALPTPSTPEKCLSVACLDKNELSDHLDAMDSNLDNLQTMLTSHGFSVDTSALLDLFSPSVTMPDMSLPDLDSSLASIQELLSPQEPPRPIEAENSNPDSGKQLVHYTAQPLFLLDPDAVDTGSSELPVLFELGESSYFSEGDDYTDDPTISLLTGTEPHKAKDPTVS

Protein RecA = target: T3, Protein RecA (Mycobacterium tuberculosis, UniProt P9WHJ3); assay: Fluorescence Cell-Free Homogeneous Dose Retest to Identify Inhibitors of RecA-Intein Splicing Activity. [Related pubchem assays (depositor defined):AID2097, AID2223, AID489010, AID492950]; format: functional
T3 sequence (P9WHJ3 whole entry): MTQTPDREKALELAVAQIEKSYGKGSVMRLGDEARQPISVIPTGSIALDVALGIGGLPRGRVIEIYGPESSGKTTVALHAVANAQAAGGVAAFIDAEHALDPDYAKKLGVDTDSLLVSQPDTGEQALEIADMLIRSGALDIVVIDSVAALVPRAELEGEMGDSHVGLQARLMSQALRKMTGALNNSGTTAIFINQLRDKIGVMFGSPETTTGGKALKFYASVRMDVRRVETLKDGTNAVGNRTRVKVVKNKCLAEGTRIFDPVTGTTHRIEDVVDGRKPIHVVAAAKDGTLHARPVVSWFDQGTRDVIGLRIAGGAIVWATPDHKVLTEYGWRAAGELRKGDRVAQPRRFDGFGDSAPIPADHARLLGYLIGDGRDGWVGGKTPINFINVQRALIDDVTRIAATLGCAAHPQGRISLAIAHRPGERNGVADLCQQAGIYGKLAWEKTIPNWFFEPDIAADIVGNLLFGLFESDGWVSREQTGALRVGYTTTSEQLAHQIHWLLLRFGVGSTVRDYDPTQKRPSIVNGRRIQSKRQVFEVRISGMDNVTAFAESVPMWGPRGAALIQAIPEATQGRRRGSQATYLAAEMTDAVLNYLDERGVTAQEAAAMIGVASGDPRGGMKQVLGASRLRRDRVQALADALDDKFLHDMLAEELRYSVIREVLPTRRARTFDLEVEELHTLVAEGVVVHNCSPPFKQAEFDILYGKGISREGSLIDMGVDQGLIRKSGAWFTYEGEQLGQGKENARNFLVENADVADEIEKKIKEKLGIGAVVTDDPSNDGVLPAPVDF

[11] = MC4R antagonists, dose response, counter-screen for LGR2 antagonist project, cell-based, plate reader, cherry pick (AID 743444); format: functional;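 further: transfected HEK 293 cells stimulated with alpha-MSH peptide; potency of inhibitors of the alpha-MSH evoked signal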
[12] = target: T4, Replicative DNA helicase DnaB (Mycobacterium tuberculosis, UniProt P9WMR3); assay: DnaB intein splicing inhibitors, dose response, biochemical, cell-free fluorescence (AID 449749); format: functional
T4 sequence (P9WMR3 whole entry): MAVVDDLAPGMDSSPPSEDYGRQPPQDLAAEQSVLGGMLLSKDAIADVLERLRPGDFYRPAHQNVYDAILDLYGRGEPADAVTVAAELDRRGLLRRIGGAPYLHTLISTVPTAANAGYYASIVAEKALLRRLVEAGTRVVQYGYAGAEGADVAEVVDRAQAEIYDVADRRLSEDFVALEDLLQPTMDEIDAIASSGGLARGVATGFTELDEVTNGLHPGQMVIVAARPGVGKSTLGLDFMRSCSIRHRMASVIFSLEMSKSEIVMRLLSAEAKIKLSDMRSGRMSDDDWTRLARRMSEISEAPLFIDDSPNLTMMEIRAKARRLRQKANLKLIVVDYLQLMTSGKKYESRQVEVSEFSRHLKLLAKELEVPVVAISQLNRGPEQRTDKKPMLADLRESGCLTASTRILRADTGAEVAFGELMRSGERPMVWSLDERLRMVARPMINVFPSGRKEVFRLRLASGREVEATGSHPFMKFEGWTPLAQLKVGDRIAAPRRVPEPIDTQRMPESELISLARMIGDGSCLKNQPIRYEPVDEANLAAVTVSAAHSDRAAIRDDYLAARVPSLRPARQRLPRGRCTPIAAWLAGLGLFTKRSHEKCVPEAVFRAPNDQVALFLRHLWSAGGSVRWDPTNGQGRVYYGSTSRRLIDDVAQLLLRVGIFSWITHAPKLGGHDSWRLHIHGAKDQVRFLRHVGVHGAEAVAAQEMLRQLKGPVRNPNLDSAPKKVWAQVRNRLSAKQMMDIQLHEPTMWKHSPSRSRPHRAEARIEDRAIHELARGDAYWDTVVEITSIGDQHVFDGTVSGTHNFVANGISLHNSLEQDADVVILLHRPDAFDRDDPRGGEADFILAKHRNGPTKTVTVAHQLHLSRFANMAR

[13] = Fluorescence-based cell-based high throughput dose response assay for inhibitors of the interaction of nucleotide-binding oligomerization domain containing 2 (NOD2) and the receptor-interacting serine-threonine kinase 2 (RIPK2).; format: functional; conditions: Homo sapiens
[14] = inhibitors of intracellular T. cruzi replication, confirmation, NIH3T3 host cells, beta-gal luminescence (AID 2044); format: functional, cell-based;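 further: intracellular parasites grown in NIH/3T3 mouse fibroblasts as host cells; luminescent beta-galactosidase reporter signal from transgenic T. cruzi replicating inside host cells; inhibitors lower the luminescence signal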
[15] = cytotoxicity toward NIH3T3 fibroblasts, dose response, counter-screen, cell-based, ATP luminescence, mouse fibroblasts (AID 2010); format: functional;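 further: cells exposed to compound for about 90 hours before reading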
[16] = HEK293 cell cytotoxicity, dose response, cytotoxicity control, plate reader, cherry-picked samples (AID 743446); format: functional, cell-based
[17] = LGR2 antagonists, dose response, cell-based, HEK293, CRE-luciferase reporter, cherry pick, set 2 (AID 743343); format: functional;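 further: transfected cells were stimulated with diluted bursicon conditioned medium after compound addition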
[18] = A549 cell cytotoxicity, dose response, cytotoxicity control, plate reader, cherry-pick, antagonist series (AID 743412); format: functional, cell-based
HeLa = assay: HeLa cell cytotoxicity, dose response, cytotoxicity control for MITF activator project, CellTiter-Glo luminescence, cherry-pick samples (AID 540259); format: functional, cell-based; conditions: Homo sapiens
[19] = target: DNA (cytosine-5)-methyltransferase 1 (Homo sapiens, UniProt P26358); assay: DNMT1 methyltransferase inhibitors, confirmation, biochemical, fluorescent molecular beacon (AID 602386); format: functional
DNA (cytosine-5)-methyltransferase 1, sequence (P26358 whole entry): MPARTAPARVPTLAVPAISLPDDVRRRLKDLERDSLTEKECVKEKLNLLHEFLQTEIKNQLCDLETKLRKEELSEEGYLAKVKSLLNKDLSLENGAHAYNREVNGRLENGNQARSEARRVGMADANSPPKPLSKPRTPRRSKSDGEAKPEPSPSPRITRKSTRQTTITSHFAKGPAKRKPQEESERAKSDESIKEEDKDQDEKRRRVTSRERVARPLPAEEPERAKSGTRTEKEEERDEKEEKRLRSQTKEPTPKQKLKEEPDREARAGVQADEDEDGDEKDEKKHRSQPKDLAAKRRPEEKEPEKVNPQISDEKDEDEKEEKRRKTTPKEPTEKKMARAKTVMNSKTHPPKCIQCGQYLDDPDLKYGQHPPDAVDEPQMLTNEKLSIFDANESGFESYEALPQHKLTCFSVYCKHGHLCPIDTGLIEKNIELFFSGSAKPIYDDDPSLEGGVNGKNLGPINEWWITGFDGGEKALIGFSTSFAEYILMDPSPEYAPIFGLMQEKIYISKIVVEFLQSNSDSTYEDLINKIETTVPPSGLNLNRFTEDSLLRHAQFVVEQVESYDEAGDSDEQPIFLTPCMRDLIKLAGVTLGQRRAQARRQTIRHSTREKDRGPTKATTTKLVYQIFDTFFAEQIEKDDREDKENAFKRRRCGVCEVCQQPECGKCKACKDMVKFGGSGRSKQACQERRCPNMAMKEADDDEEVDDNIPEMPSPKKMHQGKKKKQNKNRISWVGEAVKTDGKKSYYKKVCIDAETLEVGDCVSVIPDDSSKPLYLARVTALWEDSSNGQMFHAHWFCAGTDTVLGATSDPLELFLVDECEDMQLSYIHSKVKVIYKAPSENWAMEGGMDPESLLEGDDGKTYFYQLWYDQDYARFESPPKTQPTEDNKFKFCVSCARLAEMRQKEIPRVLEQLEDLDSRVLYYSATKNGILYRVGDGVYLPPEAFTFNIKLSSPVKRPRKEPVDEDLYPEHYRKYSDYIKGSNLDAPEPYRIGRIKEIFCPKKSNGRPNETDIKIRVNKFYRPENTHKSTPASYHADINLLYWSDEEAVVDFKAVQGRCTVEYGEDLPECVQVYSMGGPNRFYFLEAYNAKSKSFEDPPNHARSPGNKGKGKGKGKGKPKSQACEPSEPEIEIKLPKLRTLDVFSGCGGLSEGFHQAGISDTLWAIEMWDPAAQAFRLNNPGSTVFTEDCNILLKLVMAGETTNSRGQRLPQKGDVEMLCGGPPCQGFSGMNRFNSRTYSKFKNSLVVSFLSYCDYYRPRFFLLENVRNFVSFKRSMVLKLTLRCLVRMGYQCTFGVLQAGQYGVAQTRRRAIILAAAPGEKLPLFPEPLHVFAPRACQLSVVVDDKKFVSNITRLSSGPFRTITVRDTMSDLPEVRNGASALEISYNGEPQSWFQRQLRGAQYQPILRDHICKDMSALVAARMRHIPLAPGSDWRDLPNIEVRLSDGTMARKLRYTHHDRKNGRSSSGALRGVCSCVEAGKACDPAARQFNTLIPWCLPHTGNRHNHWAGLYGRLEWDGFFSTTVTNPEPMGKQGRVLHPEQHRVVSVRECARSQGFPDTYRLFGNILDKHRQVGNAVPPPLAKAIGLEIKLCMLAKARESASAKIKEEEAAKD

[20] = target: T5, Probable nicotinate-nucleotide adenylyltransferase (Staphylococcus aureus (strain N315), UniProt P65502); format: functional, Staphylococcus aureus subsp. aureus N315;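 on IC50 Mean: confirmatory dose-response retesting of NadD inhibitor hits first found in an ultra-high-throughput screen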
T5 sequence (P65502 whole entry): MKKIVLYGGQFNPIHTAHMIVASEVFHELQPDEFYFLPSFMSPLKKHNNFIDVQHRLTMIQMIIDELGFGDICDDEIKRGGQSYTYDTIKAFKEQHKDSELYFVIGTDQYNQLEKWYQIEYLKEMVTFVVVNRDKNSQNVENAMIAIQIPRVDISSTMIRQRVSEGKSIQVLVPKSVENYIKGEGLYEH

[21] = target: T5, Probable nicotinate-nucleotide adenylyltransferase; format: functional, Staphylococcus aureus subsp. aureus N315; conditions: read-out: IC50_Mean
Cysteine protease ATG4B = target: T6, Cysteine protease ATG4B (Homo sapiens, UniProt Q9Y4P1); format: functional;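 further: Fluorescence-based dose-response confirmation assay measuring inhibition of ATG4B activity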
T6 sequence (Q9Y4P1 whole entry): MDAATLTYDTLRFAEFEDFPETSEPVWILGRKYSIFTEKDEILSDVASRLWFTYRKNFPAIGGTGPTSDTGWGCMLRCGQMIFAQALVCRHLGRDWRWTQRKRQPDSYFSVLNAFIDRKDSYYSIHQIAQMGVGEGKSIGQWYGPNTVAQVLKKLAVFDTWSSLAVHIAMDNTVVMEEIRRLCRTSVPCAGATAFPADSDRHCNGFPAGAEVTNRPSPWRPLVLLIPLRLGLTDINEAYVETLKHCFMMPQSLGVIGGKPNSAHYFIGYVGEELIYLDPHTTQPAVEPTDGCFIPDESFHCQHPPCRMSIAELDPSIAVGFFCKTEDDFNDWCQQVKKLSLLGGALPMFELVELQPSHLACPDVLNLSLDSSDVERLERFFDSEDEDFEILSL

Phospholipase A2 = Phospholipase A2 (Homo sapiens, UniProt P04054); format: functional;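 further: confirmatory dose-response counterscreen on phospholipase A2, testing hits that came from an ultra-high-throughput screen for ATG4B inhibitors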
Phospholipase A2, sequence (P04054 whole entry): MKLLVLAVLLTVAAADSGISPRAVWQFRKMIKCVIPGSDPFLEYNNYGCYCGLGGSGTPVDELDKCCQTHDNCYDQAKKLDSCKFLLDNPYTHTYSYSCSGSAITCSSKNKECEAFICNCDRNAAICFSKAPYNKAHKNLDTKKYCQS

Cytochrome P450 2D6 = Cytochrome P450 2D6 (Homo sapiens, UniProt P10635);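 further: CYP2D6 member of a cytochrome P450 panel assay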
Cytochrome P450 2D6, sequence (P10635 whole entry): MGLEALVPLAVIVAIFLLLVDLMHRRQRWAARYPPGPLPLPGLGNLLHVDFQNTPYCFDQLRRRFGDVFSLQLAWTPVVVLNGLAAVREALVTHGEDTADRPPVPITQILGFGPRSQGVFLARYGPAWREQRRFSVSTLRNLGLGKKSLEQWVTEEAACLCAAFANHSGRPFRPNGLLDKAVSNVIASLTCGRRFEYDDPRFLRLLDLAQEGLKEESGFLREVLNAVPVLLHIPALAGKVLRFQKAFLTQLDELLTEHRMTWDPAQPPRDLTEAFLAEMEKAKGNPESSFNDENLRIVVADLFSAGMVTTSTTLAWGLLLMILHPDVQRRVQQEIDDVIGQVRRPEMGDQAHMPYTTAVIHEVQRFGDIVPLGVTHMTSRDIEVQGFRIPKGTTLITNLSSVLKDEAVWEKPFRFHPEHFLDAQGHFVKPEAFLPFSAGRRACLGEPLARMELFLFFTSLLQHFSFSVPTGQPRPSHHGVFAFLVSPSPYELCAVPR

Cytochrome P450 3A4 = Cytochrome P450 3A4 (Homo sapiens, UniProt P08684);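 further: CYP3A4 tested as one member of a cytochrome P450 panel screen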
Cytochrome P450 3A4, sequence (P08684 whole entry): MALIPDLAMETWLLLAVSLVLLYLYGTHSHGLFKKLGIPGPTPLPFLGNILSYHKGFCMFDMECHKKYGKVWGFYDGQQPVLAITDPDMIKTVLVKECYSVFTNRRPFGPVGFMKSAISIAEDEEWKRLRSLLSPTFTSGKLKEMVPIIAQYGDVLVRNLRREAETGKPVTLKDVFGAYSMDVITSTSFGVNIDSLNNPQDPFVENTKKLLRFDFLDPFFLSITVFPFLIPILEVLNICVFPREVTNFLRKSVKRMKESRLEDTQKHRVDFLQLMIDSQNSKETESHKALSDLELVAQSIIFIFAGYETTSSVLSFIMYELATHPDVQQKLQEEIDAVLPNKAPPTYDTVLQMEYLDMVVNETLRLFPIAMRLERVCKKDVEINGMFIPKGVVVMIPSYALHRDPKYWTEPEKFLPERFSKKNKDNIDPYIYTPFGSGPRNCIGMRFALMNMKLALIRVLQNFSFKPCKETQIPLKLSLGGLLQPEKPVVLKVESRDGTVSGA

Glucose-6-phosphate 1-dehydrogenase, sequence (P11413 whole entry): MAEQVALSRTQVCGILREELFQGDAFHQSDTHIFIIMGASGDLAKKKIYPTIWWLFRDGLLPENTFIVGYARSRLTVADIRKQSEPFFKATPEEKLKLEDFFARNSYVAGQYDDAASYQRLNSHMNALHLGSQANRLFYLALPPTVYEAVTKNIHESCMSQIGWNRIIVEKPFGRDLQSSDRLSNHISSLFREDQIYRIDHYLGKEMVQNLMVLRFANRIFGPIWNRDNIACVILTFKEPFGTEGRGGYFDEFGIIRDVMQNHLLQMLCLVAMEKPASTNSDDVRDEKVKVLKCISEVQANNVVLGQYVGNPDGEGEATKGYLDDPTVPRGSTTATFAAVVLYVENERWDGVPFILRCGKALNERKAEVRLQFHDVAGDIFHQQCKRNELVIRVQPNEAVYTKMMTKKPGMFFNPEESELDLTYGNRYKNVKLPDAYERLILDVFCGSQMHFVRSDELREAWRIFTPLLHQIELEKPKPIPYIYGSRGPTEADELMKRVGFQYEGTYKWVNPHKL

Structure (SMILES): COc1ccc(NS(=O)(=O)c2ccc(N3CCCC3)c(NC(=S)Nc3cccc(C)c3C)c2)cc1
- IC50 [1]: > 80 µM (inactive)
- IC50 [2]: > 50 µM (not active)

Structure (SMILES): CCCN(CCC)CCc1ccc(O)c(O)c1 [DIPROPYLDOPAMINE HYDROBROMIDE]
- AC50 [3]: 15.8 µM (inconclusive)

Structure (SMILES): O=C1NC(=O)N(CCc2ccccc2)C(=O)/C1=C(O)/C=C/c1ccccc1
- CC50 (Vero [4]): 13.3 µM (active)
- IC50 (Vero [5]): > 25 µM (active)

Structure (SMILES): CS(=O)(=O)c1ccc(C(=O)OCc2nnc(-c3ccccc3)o2)cc1[N+](=O)[O-]
- AC50 [6]: 8.73 µM (active)
- EC50 [7]: 19 µM (inactive)
- EC50 (HEK293 [8]): > 59.6 µM (inactive)
- EC50 (HEK293 [9]): > 59.6 µM (inactive)
- EC50 [10]: 8.57 µM (inconclusive)
- EC50 (Protein RecA): 2.66 µM (active)
- AC50 [11]: 20.2 µM (active)
- AC50 [12]: 7.57 µM (active)
- IC50 [13]: 3.01 µM (active)
- EC50 [14]: 4.95 µM (active)
- EC50 [15]: 6.24 µM (active)
- AC50 [16]: 12.1 µM (active)
- AC50 [17]: 13.4 µM (active)
- AC50 [18]: 6.14 µM (active)

Structure (SMILES): OCC1(CCOc2ccccc2)CCN(Cc2nc3cc(F)ccc3[nH]2)CC1
- IC50 (Vero [5]): 24.6 µM (active)

Structure (SMILES): Cc1nc(N2CCN(S(=O)(=O)c3ccccc3)CC2)c2cc(-c3ccccc3)sc2n1
- AC50 (HeLa): > 350 µM (inactive)

Structure (SMILES): COc1ccc(C2c3c(ncn(CCCN4CCOCC4)c3=N)Oc3ccc4ccccc4c32)cc1OC (stereo not drawn)
- CC50 (Vero [4]): > 25 µM (active)
- IC50 (Vero [5]): 23.8 µM (active)

Structure (SMILES): NC(CSC(c1ccccc1)(c1ccccc1)c1ccc(-c2ccccc2)cc1)C(=O)O (stereo not drawn)
- IC50 [19]: 9.65 µM (active)
- IC50 [20]: 11.5 µM (active)
- IC50 [21]: 24 µM (active)

Structure (SMILES): O=C(Nc1ccccc1O)c1cc2cc(Br)ccc2oc1=O
- AC50 (HeLa): 221 µM (active)

Structure (SMILES): CC(=NNc1nc2ccccc2s1)c1ccncn1
- CC50 (Vero [4]): 5.47 µM (active)
- IC50 (Vero [5]): > 25 µM (active)

Structure (SMILES): CCS(=O)(=O)Nc1cccc(C(=C2CCCCC2)c2c[nH]cn2)c1
- AC50 [3]: 14.1 µM (inconclusive)

Structure (SMILES): O=C(O)c1cc2c(cc1NC(=O)c1ccccc1OC(F)F)OCCCO2
- IC50 (Cysteine protease ATG4B): 9.56 µM (active)
- IC50 (Phospholipase A2): 6.69 µM (active)

Structure (SMILES): CCOC(=O)c1sc(-c2ccccc2)cc1NC(=O)Nc1ccccc1
- IC50 (Cysteine protease ATG4B): 21.9 µM (inactive)
- EC50 [14]: 3.49 µM (active)
- EC50 [15]: 16.8 µM (active)
- IC50 (Phospholipase A2): 9.28 µM (active)

Structure (SMILES): CCCc1cc(=O)[nH]c(SCc2cc(Cl)ccc2OC(F)F)n1
- IC50 (Cysteine protease ATG4B): 9.02 µM (active)
- AC50 (Cytochrome P450 2D6): 20 µM (inconclusive)
- AC50 (Cytochrome P450 3A4): 1.12 µM (inconclusive)
- IC50 (Phospholipase A2): 9.01 µM (active)

Structure (SMILES): CCn1cnc2c(Nc3cccc(Cl)c3)nc(C#N)nc21
- AC50 (HeLa): 50 µM (active)

Structure (SMILES): CC(C)(C)CC(=O)Nc1cccc2c1CCCC2
- IC50 [19]: > 99 µM (inactive)

Structure (SMILES): CC(=O)OCC1(C)CN(c2ccccc2)NC1=O (stereo not drawn)
- IC50 [1]: 46.7 µM (inactive)

— ChEMBL document CHEMBL1201862, “PubChem BioAssay data set” (2004)
